“And” between values parts separate entries of the source, which are not always exact repeats. Equal entries are not always repeated. Where two headings read alike, the source gives them in different places.
How the values were obtained:
[1] = target: T1, hA2A receptors expressed in CHO cells (Homo sapiens, UniProt P29274); test: [3H]CGS21680 binding hA2A CHO cells; conditions: [3H]-CGS 21680, hA2A CHO cell membranes, 180 min at 25° C.; mean ± s.e. mean
T1 construct: expressed in transfected cells; host or cells: CHO cells (stably transfected, per Klotz et al. 1998); membrane preparation
T1 sequence (P29274 whole entry): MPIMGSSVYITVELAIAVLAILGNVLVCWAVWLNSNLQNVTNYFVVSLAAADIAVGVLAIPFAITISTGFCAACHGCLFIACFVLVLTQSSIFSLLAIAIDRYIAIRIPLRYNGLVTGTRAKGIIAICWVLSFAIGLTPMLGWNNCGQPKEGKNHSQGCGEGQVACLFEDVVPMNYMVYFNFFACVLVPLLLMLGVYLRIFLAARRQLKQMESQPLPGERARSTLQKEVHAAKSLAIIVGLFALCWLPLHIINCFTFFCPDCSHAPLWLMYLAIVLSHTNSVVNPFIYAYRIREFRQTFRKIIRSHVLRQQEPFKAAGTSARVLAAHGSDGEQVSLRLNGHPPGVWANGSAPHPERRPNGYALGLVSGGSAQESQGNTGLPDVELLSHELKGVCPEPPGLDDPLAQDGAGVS
Method: (§2) The cells are grown adherently and maintained in Dulbecco's Modified Eagles Medium with nutrient mixture F12 (DMEM/F12) without nucleosides, containing 10% fetal calf serum, penicillin (100 U/mL), streptomycin (100 μg/mL), L-glutamine (2 mM) and Geneticin (G418, 0.2 mg/mL) at 37° C. in 5% CO2/95% air. […] For membrane preparation the culture medium is removed and the cells are washed with PBS and scraped off T75 flasks in ice-cold hypotonic buffer (5 mM Tris HCl, 2 mM EDTA, pH 7.4). The cell suspension is homogenized and centrifuged for 30 min at 100,000×g. The membrane pellet is re-suspended in 50 mM Tris HCl buffer pH 7.4 and incubated with 2 UI/mL of adenosine deaminase for 30 min at 37° C.
(§3) Binding of 1 nM [^3H]—CHA to hA1CHO cells (50 μg of protein/assay) is performed using 50 mM Tris HCl buffer pH 7.4 and at least 6-8 different concentrations of agonists studied for an incubation time of 150 min at 25° C. […] Non-specific binding is determined in the presence of 10 μM of CHA and is about 20% of the total binding. […] Filter bound radioactivity is measured by scintillation spectrometry after addition of 5 mL of Aquassure.
(§4) All experimental data are expressed as the mean±standard error of the mean (s.e. mean) of three or four independent experiments performed in duplicate.

[2] = target: T2, hA2B receptors expressed in CHO cells (Homo sapiens, UniProt P29275); test: cAMP assay hA2B CHO cells; format: cell-based; conditions: for EC50: stimulation of cAMP levels, hA2B CHO cells, mean ± s.e. mean; for Selectivity hA1/hA2B: ratio hA1 Ki / hA2B EC50; for Selectivity hA2A/hA2B: ratio hA2A Ki / hA2B EC50; for Selectivity hA3/hA2B: ratio hA3 IC50 / hA2B EC50
T2 construct: expressed in transfected cells; host or cells: CHO cells
T2 sequence (P29275 1-332): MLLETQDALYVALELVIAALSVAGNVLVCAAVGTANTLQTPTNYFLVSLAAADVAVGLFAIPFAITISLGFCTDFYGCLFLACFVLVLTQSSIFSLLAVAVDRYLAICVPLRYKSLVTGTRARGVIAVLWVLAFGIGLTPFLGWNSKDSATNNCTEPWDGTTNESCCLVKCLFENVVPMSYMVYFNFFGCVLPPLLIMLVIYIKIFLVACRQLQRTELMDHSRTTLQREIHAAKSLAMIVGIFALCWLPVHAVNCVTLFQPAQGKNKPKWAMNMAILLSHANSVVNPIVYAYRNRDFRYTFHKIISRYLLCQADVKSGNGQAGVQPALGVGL
Method: The effects of the tested compounds may be evaluated in functional assays measuring the stimulatory capability of the ligands to increase cAMP levels in hA2B receptors expressed in CHO cells. This may done as described by Pastorin et al. in “Pyrazolo[4,3-e]-1,2,4-triazolo[1,5-c]pyrimidine derivatives as adenosine receptor antagonists.
(§1) For cell preparation CHO cells transfected with human A2B or A3 receptors are washed with phosphate-buffered saline and diluted trypsin, and centrifuged for 10 min at 200 g. […] After the preincubation time at 37° C., the examined ligands (1 nM-10 μM) are added to the mixture and incubated for a further 5 min. The reaction is terminated by the addition of cold 6% trichloroacetic acid (TCA). The TCA suspension is centrifuged at 2000 g for 10 min at 4° C. and the supernatant is extracted four times with water saturated diethyl ether. […] Samples of cyclic AMP standard (0-10 pmoles) are added to each test tube containing the incubation buffer (trizma base 0.1 mM, aminophylline 8.0 mM, 2-mercaptoethanol 6.0 mM, pH 7.4) and [^3H]cyclic AMP in total volume of 0.5 mL. The binding protein previously incubated at 4° C. for 150 min, and after the addition of charcoal is centrifuged at 2000 g for 10 min. The clear supernatant is counted in a Beckman scintillation counter.

[3] = target: T3, human A3 receptors in CHO cells (Homo sapiens, UniProt P0DMS8); test: cAMP assay hA3 CHO cells; format: cell-based; conditions: cyclic AMP assay, mean ± s.e. mean
T3 construct: expressed in transfected cells; host or cells: CHO cells
T3 sequence (P0DMS8 1-318): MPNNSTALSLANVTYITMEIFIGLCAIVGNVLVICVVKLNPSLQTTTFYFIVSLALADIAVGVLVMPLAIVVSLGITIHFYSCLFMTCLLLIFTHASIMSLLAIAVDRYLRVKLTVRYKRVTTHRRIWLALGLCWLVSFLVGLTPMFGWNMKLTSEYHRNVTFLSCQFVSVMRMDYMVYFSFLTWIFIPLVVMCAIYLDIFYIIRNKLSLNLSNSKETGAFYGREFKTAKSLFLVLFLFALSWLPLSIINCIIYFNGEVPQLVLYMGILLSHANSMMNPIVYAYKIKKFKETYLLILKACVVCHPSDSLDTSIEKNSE
Method: as §1

[4] = target: T4, hA1 receptors expressed in CHO cells (Homo sapiens, UniProt P30542); test: [3H]CHA binding hA1 CHO cells
T4 sequence (P30542 1-326): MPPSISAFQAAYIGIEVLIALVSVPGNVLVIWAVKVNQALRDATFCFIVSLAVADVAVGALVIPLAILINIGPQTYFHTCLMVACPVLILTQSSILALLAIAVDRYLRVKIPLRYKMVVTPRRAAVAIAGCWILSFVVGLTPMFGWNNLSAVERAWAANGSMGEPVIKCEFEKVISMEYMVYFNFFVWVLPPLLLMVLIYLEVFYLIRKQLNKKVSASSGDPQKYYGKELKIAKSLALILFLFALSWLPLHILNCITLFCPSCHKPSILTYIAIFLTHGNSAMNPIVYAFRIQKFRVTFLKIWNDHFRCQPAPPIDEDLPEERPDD
Method: as §2, §3, §4

[5] = read-out: [3H]CHA binding hA1 CHO cells Ki, 1 nM [3H]-CHA, hA1 CHO cell membranes, 150 min at 25° C., mean ± s.e. mean

Ki [1] | EC50 [2] | IC50 [3] | melting point | Ki [4] | Selectivity hA1/hA2B [2] | Selectivity hA2A/hA2B [2] | Selectivity hA3/hA2B [2] | Ki [4, 5] | SMILES
> 1000 nM | > 1000 nM | > 1000 nM | 174 to 175 °C and 173 to 174 °C | > 1000 nM |  |  |  |  | CCNC(=O)[C@H]1O[C@@H](n2cnc3c(NNC(=O)c4ccccc4)ncnc32)[C@H](O)[C@@H]1O [Compound 9b, (2S, 3S, 4R, 5R)-5-[6-(N′-Benzoyl-hydrazino)-9H-purin-9-yl]-3,4-dihydroxy-tetrahydrofuran-2 carboxylic acid ethylamide]
> 1000 nM | > 1000 nM | > 1000 nM | 188 to 189 °C | > 1000 nM |  |  |  |  | CCNC(=O)[C@H]1O[C@@H](n2cnc3c(NNC(=O)c4ccc(Cl)cc4)ncnc32)[C@H](O)[C@@H]1O [Compound 10b, (2S, 3S, 4R, 5R)-5-{6-[N′-(4-Chlorobenzoyl)-hydrazino]-9H-purin-9-yl}-3,4-dihydroxy-tetrahydrofuran-2-carboxylic acid ethylamide]
> 1000 nM | > 1000 nM | > 1000 nM | 170 °C | > 1000 nM |  |  |  |  | CCNC(=O)[C@H]1O[C@@H](n2cnc3c(NNC(=O)c4cccnc4)ncnc32)[C@H](O)[C@@H]1O [Compound 11b, (2S, 3S, 4R, 5R)-3,4-Dihydroxy-5-{6-[N′-(pyridine-3-carbonyl)-hydrazino]-9H-purin-9-yl}-tetrahydrofuran-2-carboxylic acid ethylamide]
> 1000 nM | 82 ± 10 nM | > 1000 nM | 233 to 234 °C | > 1000 nM | >12.19 | >12.19 | >12.19 |  | CCNC(=O)[C@H]1O[C@@H](n2cnc3c(NNC(=O)c4ccco4)ncnc32)[C@H](O)[C@@H]1O [Compound 12b, (2S, 3S, 4R, 5R)-5-{6-[N′-(Furan-2-carbonyl)-hydrazino]-9H-purin-9-yl}-3,4-dihydroxy-tetrahydrofuran-2-carboxylic acid ethylamide]
 |  |  | 171 °C |  |  |  |  |  | CCNC(=O)[C@H]1O[C@@H](n2cnc3c(NNC(=O)c4ccc(Br)o4)ncnc32)[C@H](O)[C@@H]1O [Compound 13b, (2S, 3S, 4R, 5R)-5-{6-[N′-(5-Bromo-furan-2-carbonyl)-hydrazino]-9H-purin-9-yl}-3,4-dihydroxy-tetrahydrofuran-2-carboxylic acid ethylamide]
1300 ± 50 nM | 227 ± 18 nM | > 1000 nM | 154 to 155 °C |  | 3.08 | 5.73 | >4.40 | 700 ± 25 nM | CCNC(=O)[C@H]1O[C@@H](n2cnc3c(NNC(=O)c4ccc(C)o4)ncnc32)[C@H](O)[C@@H]1O [Compound 14b, (2S, 3S, 4R, 5R)-3,4-Dihydroxy-5-{6-[N′-(5-methyl-furan-2-carbonyl)-hydrazino]-9H-purin-9-yl}-tetrahydrofuran-2-carboxylic acid ethylamide]
> 1000 nM | > 1000 nM | > 1000 nM | 169 to 170 °C | > 1000 nM |  |  |  |  | CCNC(=O)[C@H]1O[C@@H](n2cnc3c(NNC(=O)c4nc([N+](=O)[O-])cn4C)ncnc32)[C@H](O)[C@@H]1O [Compound 15b, (2S, 3S, 4R, 5R)-3,4-Dihydroxy-5-{6-[N′-(1-methyl-4-nitro-1H-imidazole-2-carbonyl)-hydrazino]-9H-purin-9-yl}-tetrahydrofuran-2-carboxylic acid ethylamide]
> 1000 nM | 273 ± 12 nM | > 1000 nM | 153 to 154 °C | > 1000 nM | >3.66 | >3.66 | >3.66 |  | CCNC(=O)[C@H]1O[C@@H](n2cnc3c(NNC(=O)c4ccc(C)s4)ncnc32)[C@H](O)[C@@H]1O [Compound 16b, (2S, 3S, 4R, 5R)-3,4-Dihydroxy-5-{6-[N′-(5-methyl-thiophene-2-carbonyl)-hydrazino]-9H-purin-9-yl}-tetrahydrofuran-2-carboxylic acid ethylamide]
> 1000 nM | > 1000 nM | > 1000 nM | 253 to 254 °C | > 1000 nM |  |  |  |  | CCNC(=O)[C@H]1O[C@@H](n2cnc3c(NNC(=O)c4ccccc4)nc(Cl)nc32)[C@H](O)[C@@H]1O [Compound 17b, (2S, 3S, 4R, 5R)-5-[6{N′-Benzoyl-hydrazino)-2-chloro-9H-purin-9-yl}-3,4-dihydroxy-tetrahydrofuran-2-carboxylic acid ethylamide]
> 1000 nM | 210 ± 13 nM | > 1000 nM | 269 to 270 °C | > 1000 nM | >4.76 | >4.76 | >4.76 |  | CCNC(=O)[C@H]1O[C@@H](n2cnc3c(NNC(=O)c4ccco4)nc(Cl)nc32)[C@H](O)[C@@H]1O [Compound 18b, (2S, 3S, 4R, 5R)-5-{2-Chloro-6-[N′-(furan-2-carbonyl)-hydrazino]-9H-purin-9-yl}-3,4-dihydroxy-tetrahydrofuran-2-carboxylic acid ethylamide]
> 1000 nM | 175 ± 20 nM | > 1000 nM | 156 °C | > 1000 nM | >5.71 | >5.71 | >5.71 |  | CCNC(=O)[C@H]1O[C@@H](n2cnc3c(NNC(=O)c4ccc(C)s4)nc(Cl)nc32)[C@H](O)[C@@H]1O [Compound 19b, (2S, 3S, 4R, 5R)-5-{2-Chloro-6-[N′-(5-methyl-thiophene-2-carbonyl)-hydrazino]-9H-purin-9-yl}-3,4-dihydroxy-tetrahydrofuran-2-carboxylic acid ethylamide]
633 ± 60 nM | 603 ± 31 nM | 67 ± 4 nM | 153 to 154 °C |  | 0.10 | 1.05 | 0.11 | 62 ± 4 nM | CCNC(=O)[C@H]1O[C@@H](n2cnc3c(NNC(=O)Cc4cccs4)nc(Cl)nc32)[C@H](O)[C@@H]1O [Compound 20b, (2S, 3S, 4R, 5R)-5-{2-Chloro-6-[N′-(2-thiophene-2-yl-acetyl)-hydrazino]-9H-purin-9-yl}-3,4-dihydroxy-tetrahydrofuran-2-carboxylic acid ethylamide]
> 1000 nM | 450 ± 29 nM | > 1000 nM | 249 to 250 °C |  | 2.07 | >2.22 | >2.22 | 933 ± 76 nM | CCNC(=O)[C@H]1O[C@@H](n2cnc3c(NNC(=O)c4ccsc4)nc(Cl)nc32)[C@H](O)[C@@H]1O [Compound 21b, (2S, 3S, 4R, 5R)-5-{2-Chloro-6-[N′-(thiophene-3-carbonyl)-hydrazino]-9H-purin-9-yl}-3,4-dihydroxy-tetrahydrofuran-2-carboxylic acid ethylamide]

Source: US7691825B2, “Adenosine A2B receptor agonists” (King Pharmaceuticals Research and Development, Inc., priority 2006, dated 2010)
